Biological target: T1, LeETR1 (Solanum lycopersicum, UniProt Q41342)
T1 construct: made in house; host or cells: E. coli
T1 sequence (Q41342 1-754): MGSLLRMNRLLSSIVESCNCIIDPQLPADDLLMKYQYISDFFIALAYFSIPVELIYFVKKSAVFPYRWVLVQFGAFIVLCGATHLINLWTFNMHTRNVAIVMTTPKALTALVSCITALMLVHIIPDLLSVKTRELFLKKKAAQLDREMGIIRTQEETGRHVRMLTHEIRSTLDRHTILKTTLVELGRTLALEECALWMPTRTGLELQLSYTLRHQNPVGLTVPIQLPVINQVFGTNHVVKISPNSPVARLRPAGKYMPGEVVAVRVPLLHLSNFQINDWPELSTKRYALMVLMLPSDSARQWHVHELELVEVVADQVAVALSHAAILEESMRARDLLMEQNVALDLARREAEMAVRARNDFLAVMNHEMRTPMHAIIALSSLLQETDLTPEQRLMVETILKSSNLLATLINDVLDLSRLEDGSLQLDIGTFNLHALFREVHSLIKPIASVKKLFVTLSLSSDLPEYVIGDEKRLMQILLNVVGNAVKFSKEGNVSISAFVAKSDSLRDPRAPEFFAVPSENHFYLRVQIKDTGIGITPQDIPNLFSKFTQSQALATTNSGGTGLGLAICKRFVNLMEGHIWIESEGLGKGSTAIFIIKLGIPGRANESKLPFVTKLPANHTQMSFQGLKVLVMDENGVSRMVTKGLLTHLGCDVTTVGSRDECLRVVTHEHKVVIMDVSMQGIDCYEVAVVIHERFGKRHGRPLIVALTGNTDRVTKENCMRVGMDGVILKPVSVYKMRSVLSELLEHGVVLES
Assay: MST NOP-1 binding to LeETR1
Set-up: species or system tomato
Conditions: 50 nM LeETR1 labeled with Alexa Fluor 488-Maleimide, NOP-1 3.8 nM to 31 μM, 50 mM Tris-HCl pH 8.0, 300 mM NaCl, 0.015% (w/v) Fos-Choline-16, 80% MST power, 1:1 stoichiometry, mean +/− standard deviation
From the text: To substantiate the inhibitory role of NOP-1 in LeEIN2-LeETR1 complex formation, NOP-1 binding to LeETR1 was studied by microscale thermophoresis (MST) as described in the Methods section. […] The Kd for the LeETR1-NOP1 interaction compares to the affinities of the EIN2-ETR1 interaction in Arabidopsis[10][11] and tomato (this work) emphasizing that the NOP-1 peptide can efficiently compete for ETR1 binding and disrupt EIN2-ETR1 complex formation.
Analysis of LeETR1-LeEIN2 complex formation, NOP-1 binding to LeETR1 and determination of the respective dissociation constants Kd was performed by MST[33][34][35]. For protein-protein interaction studies LeETR1 was labeled with Alexa Fluor 488 succinimidyl-ester (Life Technologies) in a buffer containing 50 mM potassium phosphate pH 8.0, 300 mM NaCl and 0.015% (w/v) Fos-Choline-16 according to the manufacturer’s protocol. […]
For quantification of NOP-1 binding to tomato receptor protein, recombinant LeETR1 was labeled with Alexa Fluor 488-Maleimide (Life Technologies) in a buffer containing 50 mM potassium phosphate pH 8.0, 300 mM NaCl, 0.015% (w/v) Fos-Choline-16 following the manufacturer’s protocol. […] Protein-peptide mixtures were transferred into glass capillaries and MST was measured with 80% MST power. […] The dissociation constant Kd was calculated according to a model assuming a 1:1 stoichiometry per binding partner.

CC(C)C[C@H](NC(=O)[C@H](CCCNC(=N)N)NC(=O)[C@H](CCCNC(=N)N)NC(=O)[C@H](CCCCN)NC(=O)[C@H](Cc1ccc(O)cc1)NC(=O)[C@H](CCCNC(=N)N)NC(=O)[C@H](CCCCN)NC(=O)[C@@H](N)CC(C)C)C(N)=O [NOP-1, LKRYKRRL-NH2]
Kd: ~150 nM

Source: PMC4967898, “Peptides interfering with protein-protein interactions in the ethylene signaling pathway delay tomato fruit ripening” (Scientific Reports, 2016)
